Structures can show the parent of a compound that is named as a salt.
Experiments:
[1] = test system: guinea-pig trachea muscle; assay: guinea-pig trachea contraction; conditions: muscles have essentially M2 receptors
[2] = test system: M1 receptors on the intramural inhibitory neurons; assay: lower esophageal sphincter pressure assay in anaesthetized opossum; format: in vivo
Protocol: The compound (I) obtained according to Example 2 was tested by assay on the lower esophageal sphincter of an opossum anaesthetized with sodium phenobarbitol. In carrying out the assay, the lower esophageal sphincter located between the esophagus and the stomach remains in a state of tonic contraction; therefore, a pressure sensing (manometric) catheter introduced from the animal's mouth into the lumen monitors lower esophageal sphincter pressures by registering a sustained high pressure zone, due to the lumen's myogenic contraction which is independent of neural or hormonal influences. Neural activity and hormones can increase or decrease the sphincter pressure and both excitatory and inhibitory influences can be readily detected.
The intraluminal pressures from the lower esophageal sphincter, esophageal body and the stomach are continuously monitored using a low compliance, waterfilled and continuously perfused catheter anchored in the lower esophageal sphincter so that artifacts due to axial motion can be minimized. See Goyal et al., Gastroenterology, 71, 62-7 (1976). All animals receive bilateral cervical vagotomy to eliminate vagally mediated changes in the sphincter pressure. Nerves to the sphincter are stimulated electrically by electrodes which are either applied to the distal end of the cut vagus nerve or applied intramurally in the sphincter. See Goyal et al., supra, and Rattan et al., Am. J. Physiol., 234, E272-E276 (1978). Reflex relaxation of the sphincter is produced by distension of the esophagus with an intraluminal balloon. Drugs are administered in the arterial supply of the lower esophageal sphincter. This is done by opening the abdominal cavity and cannulating the artery that leads to the lower esophageal sphincter. The compound is injected into the blood supply of the lower esophageal sphincter and its effect therein is determined. The animal's vital signs are monitored and blood pressure is maintained with intravenous infusion of saline. Some drugs are administered intravenously.
In summary, the above-described model permits identification of muscarinic agonists and antagonists in a physiological system.

[3] = lower esophageal sphincter, anaesthetized opossum

Cc1ccc(-c2cncn2C)o1 [Compound I, 1-(N-methyl)-5-(5'-methyl-2'-furyl)imidazole, Hydrochloride]
potency in contracting the trachea muscle [1]: virtually no potency
M1 receptor selectivity ([2]; M1 versus M2, from sphincter and trachea results): highly selective for M1 receptors
blockade of activity by antagonist ([2]; atropine): blocked by atropine
agonist type ([2]; inferred from 80% of full agonist activity): partial agonist
dosage giving peak effect [2, 3]: 10^-6 mole/kg
threshold dosage [2, 3]: 10^-8 mole/kg
muscarinic receptor subtype effects ([2]; lower esophageal sphincter, anaesthetized opossum, injected into arterial supply of the sphincter): only M1 effects

— patent US4871758A, “Pharmacologically active cholinergic compositions, and methods for making same and use thereof in treating disease” (priority 1987, dated 1989)
